# Assays:
# Assay type in all cases: physicochemical
# [1] = Six months stability of crystalline Form SRA: assay / purity by HPLC
# From the text: (§1) Inventors of the present application performed six months stability for the novel crystalline Form SRA according to the following temperature and relative humidity conditions: […]
# [2] = Six months stability of crystalline Form SRA: comparative XRPD pattern (polymorphic stability); details: after 6 months under 25° C.±2/65±5% RH and 40° C.±2/75±5% RH
# From the text: as §1
# [3] = Six months stability of crystalline Form SRA: moisture content by KF method
# From the text: as §1
structure (smiles),measurement,setting,value
"Nc1cccc2c1CN(C1CCC(=O)NC1=O)C2=O (stereo not shown) [Form SRA, 3-(7-amino-3-oxo-1H-isoindol-2-yl) piperidine-2,6-dione]",Assay (by HPLC; on anhydrous basis) Between 98.0 to 102.0% w/w,"[1]; A = 25° C.±2/65±5% RH, 1M",99.50 % w/w
same,Assay (by HPLC; on anhydrous basis) Between 98.0 to 102.0% w/w,"[1]; A = 25° C.±2/65±5% RH, 2M",99.41 % w/w
same,Assay (by HPLC; on anhydrous basis) Between 98.0 to 102.0% w/w,"[1]; A = 25° C.±2/65±5% RH, 3M",99.55 % w/w
same,Assay (by HPLC; on anhydrous basis) Between 98.0 to 102.0% w/w,"[1]; A = 25° C.±2/65±5% RH, 6M",99.47 % w/w
same,Assay (by HPLC; on anhydrous basis) Between 98.0 to 102.0% w/w,"[1]; A = 25° C.±2/65±5% RH, Initial",100.38 % w/w
same,Assay (by HPLC; on anhydrous basis) Between 98.0 to 102.0% w/w,"[1]; B = 40° C.±2/75±5% RH, 1M",99.77 % w/w
same,Assay (by HPLC; on anhydrous basis) Between 98.0 to 102.0% w/w,"[1]; B = 40° C.±2/75±5% RH, 2M",99.64 % w/w
same,Assay (by HPLC; on anhydrous basis) Between 98.0 to 102.0% w/w,"[1]; B = 40° C.±2/75±5% RH, 3M",100.02 % w/w
same,Assay (by HPLC; on anhydrous basis) Between 98.0 to 102.0% w/w,"[1]; B = 40° C.±2/75±5% RH, 6M",99.47 % w/w
same,Assay (by HPLC; on anhydrous basis) Between 98.0 to 102.0% w/w,"[1]; B = 40° C.±2/75±5% RH, Initial",100.38 % w/w
same,HPLC purity retained in the stability study,[1]; six months stability study,exceeding 99.9 % w/w by HPLC
same,"Crystalline form by comparative XRPD, initial stage vs after stability",[2],crystalline form remains unchanged
same,Moisture Content (by KF method) Not more than 0.5% w/w,"[3]; A = 25° C.±2/65±5% RH, 1M",0.22 % w/w
same,Moisture Content (by KF method) Not more than 0.5% w/w,"[3]; A = 25° C.±2/65±5% RH, 2M",0.22 % w/w
same,Moisture Content (by KF method) Not more than 0.5% w/w,"[3]; A = 25° C.±2/65±5% RH, 3M",0.23 % w/w
same,Moisture Content (by KF method) Not more than 0.5% w/w,"[3]; A = 25° C.±2/65±5% RH, 6M",0.23 % w/w
same,Moisture Content (by KF method) Not more than 0.5% w/w,"[3]; A = 25° C.±2/65±5% RH, Initial",0.23 % w/w
same,Moisture Content (by KF method) Not more than 0.5% w/w,"[3]; B = 40° C.±2/75±5% RH, 1M",0.21 % w/w
same,Moisture Content (by KF method) Not more than 0.5% w/w,"[3]; B = 40° C.±2/75±5% RH, 2M",0.22 % w/w
same,Moisture Content (by KF method) Not more than 0.5% w/w,"[3]; B = 40° C.±2/75±5% RH, 3M",0.22 % w/w
same,Moisture Content (by KF method) Not more than 0.5% w/w,"[3]; B = 40° C.±2/75±5% RH, 6M",0.22 % w/w
same,Moisture Content (by KF method) Not more than 0.5% w/w,"[3]; B = 40° C.±2/75±5% RH, Initial",0.23 % w/w
